Data published in patent US20230109839A1, “THERAPEUTIC AGENT FOR TAUOPATHIES” (SUMITOMO PHARMA CO., LTD., priority 2020, published 2023).

The molecules below were run against T1, human Nav1.1 (Homo sapiens, UniProt P35498) (assay: Amplification of Nav1.1-derived voltage-gated sodium current (Nav1.1 current), automated patch clamp (Test 1)). Conditions: Concentration for evaluation 1 μM; HEK293 cell line stably expressing human Nav1.1.
T1 construct: host or cells: HEK293
Type: cell-based
Procedure, shortened: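 HEK293 cells stably expressing human Nav1.1, restricted to cells with >500 pA current, were recorded by automated voltage-clamp patch clamp with a ramp voltage stimulus. Compounds were applied in HEPES-buffered extracellular solution with 1% DMSO. Amplification (%) = 100×(peak or AUC after/before compound)−100.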

SMILES	Nav1.1 current amplification rate (%)
CN(c1cnc2cnn(CC(=O)Nc3cnc4cccnc4c3)c2n1)C1CC1 [Example 713]	112%
CN(c1cnc2cnn(CC(=O)N3CCc4c(C#N)cccc43)c2n1)C1CC1 [Example 715]	13%
CN1CCN(c2cccc3c2CCN3C(=O)Cn2ncc3ncc(N(C)C4CC4)nc32)CC1 [Example 716]	45%
CN(c1cnc2cnn(CC(=O)Nc3cnc4ccccc4c3)c2n1)C1CC1 [Example 719]	78%
CN(c1cnc2cnn(CC(=O)N3CCc4c(CN5CC=CC5)cccc43)c2n1)C1CC1 [Example 720]	230%
CN(c1cnc2cnn(CC(=O)Nc3ccc4cnccc4n3)c2n1)C1CC1 [Example 721]	17%
CN(c1cnc2cnn(CC(=O)Nc3ccc(Cl)nc3)c2n1)C1CC1 [Example 722]	35%
CN(c1cnc2cnn(CC(=O)Nc3cnc4ncccc4c3)c2n1)C1CC1 [Example 723]	95%
CN(c1cnc2cnn(CC(=O)Nc3ccc4ccncc4n3)c2n1)C1CC1 [Example 724]	28%
CN(c1cnc2cnn(CC(=O)Nc3ccc4ncncc4c3)c2n1)C1CC1 [Example 728]	71%
CN(c1cnc2cnn(CC(=O)N3CCc4c(C5CC5)cccc43)c2n1)C1CC1 [Example 730]	133%
CN(c1cnc2cnn(CC(=O)Nc3ccc4ccncc4c3)c2n1)C1CC1 [Example 732]	152%
CN(c1cnc2cnn(CC(=O)Nc3ccc4cnncc4c3)c2n1)C1CC1 [Example 733]	76%
CN(c1cnc2cnn(CC(=O)N3CCc4c3cccc4C(C)(C)O)c2n1)C1CC1 [Example 734]	107%

The next lines start with the values.

Nav1.1 current amplification rate (%)	SMILES
98%	CC1CCN(c2ncc3cnn(CC(=O)Nc4ccn5ncnc5c4)c3n2)CC1 [Example 763]
25%	O=C(Cn1ncc2cnc(N3CCC4(CCC4)C3)nc21)Nc1ccn2ncnc2c1 [Example 765]
41%	O=C(Cn1ncc2cnc(N3CCC4(CCC4)CC3)nc21)Nc1ccn2ncnc2c1 [Example 766]
18%	O=C(Cn1ncc2cnc(N3CCC(F)(F)CC3)nc21)Nc1ccn2ncnc2c1 [Example 768]

Same assay, conditions: Concentration for evaluation 3 μM; HEK293 cell line stably expressing human Nav1.1

SMILES	Nav1.1 current amplification rate (%)
CN(c1cnc2cnn(CC(=O)N3CCN(c4cccc(F)c4)CC3)c2n1)C1CC1 [Example 714]	11%
CN(c1cnc2cnn(CC(=O)Nc3ccc4ccccc4n3)c2n1)C1CC1 [Example 717]	23%

Same assay, conditions: Concentration for evaluation 10 μM; HEK293 cell line stably expressing human Nav1.1

SMILES	Nav1.1 current amplification rate (%)
CN(c1cnc2cnn(CC(=O)Nc3ccc4ncccc4n3)c2n1)C1CC1 [Example 725]	51%
CN(c1cnc2cnn(CC(=O)Nc3cccnc3)c2n1)C1CC1 [Example 726]	31%
CN(c1cnc2cnn(CC(=O)Nc3cc4ccccc4nn3)c2n1)C1CC1 [Example 727]	71%
CN(c1cnc2cnn(CC(=O)Nc3cc4cccnc4cn3)c2n1)C1CC1 [Example 729]	55%
CN(c1cnc2cnn(CC(=O)N3CCc4c3cccc4C(F)(F)F)c2n1)C1CC1 [Example 731]	102%
O=C(Cn1ncc2cnc(N3CCOCC3)nc21)Nc1ccn2ncnc2c1 [Example 767]	60%

Same assay, conditions: Concentration for evaluation 50 μM; HEK293 cell line stably expressing human Nav1.1

SMILES	Nav1.1 current amplification rate (%)
CN(c1cnc2cnn(CC(=O)Nc3ccc4cccnc4n3)c2n1)C1CC1 [Example 712]	78%
CN(c1cnc2cnn(CC(=O)Nc3cc4ccccc4cn3)c2n1)C1CC1 [Example 718]	34%
Cc1ccc(-c2ncc3cnn(CC(=O)Nc4ccn5ncnc5c4)c3n2)o1 [Example 772]	35%

Same assay, conditions: HEK293, Concentration for evaluation 1 μM; HEK293 cell line stably expressing human Nav1.1; read-out: Nav1.1 current amplification rate (%)

SMILES	activation at 1 µM
CC1CC=C(c2cnc3cnn(CC(=O)Nc4ccc5ocnc5c4)c3n2)CC1 (stereo not shown) [Example 735]	321%
O=C(Cn1ncc2ncc(N3CCC4(CCC4)CC3)nc21)N1CCN(c2cccnc2)CC1 [Example 736]	13%
CC1CC=C(c2cnc3cnn(CC(=O)N4CCN(c5cccnc5)CC4)c3n2)CC1 (stereo not shown) [Example 740]	91%
Cc1ccc(-c2cnc3cnn(CC(=O)N4CCN(c5cccnc5)CC4)c3n2)c(F)c1 [Example 742]	32%
CN(CC1CC1)c1cnc2cnn(CC(=O)Nc3ccc(C#N)nc3)c2n1 [Example 748]	17%
CN(c1cnc2cnn(CC(=O)Nc3cnc4cccnc4c3)c2n1)C1CC(C)(C)C1 [Example 755]	245%
CN(c1cnc2cnn(CC(=O)Nc3ccc(C#N)nc3)c2n1)C1CC(C)(C)C1 [Example 756]	104%
CN(c1cnc2cnn(CC(=O)Nc3ccc4ncncc4c3)c2n1)C1CC(C)(C)C1 [Example 758]	61%
CN(CC1(C)CC1)c1cnc2cnn(CC(=O)Nc3cnc4cccnc4c3)c2n1 [Example 760]	104%
CN(c1cnc2cnn(CC(=O)Nc3ccc(C#N)nn3)c2n1)C1CC(C)(C)C1 [Example 761]	43%

Further lines, results first:

activation at 1 µM	SMILES
249%	CC1(C)CC=C(c2cnc3cnn(CC(=O)Nc4ccn5ccnc5c4)c3n2)CC1 [Example 737]
61%	Cc1cc(NC(=O)Cn2ncc3ncc(N4CCC5(CC5)C(F)(F)C4)nc32)cc2ncnn12 [Example 741]
147%	O=C(Cn1ncc2ncc(N3CCC4(CC4)C(F)(F)C3)nc21)Nc1ccn2ccnc2c1 [Example 744]
43%	Cc1cc(NC(=O)Cn2ncc3ncc(N(C)CC4CC4)nc32)cc2ncnn12 [Example 745]
73%	O=C(Cn1ncc2ncc(N3CCC4(CC4)C(F)(F)C3)nc21)Nc1ccc(-n2ccnc2)nc1 [Example 747]
135%	CN(c1cnc2cnn(CC(=O)Nc3cnc4cccnc4c3)c2n1)C1CC2(CC2)C1 [Example 752]
14%	N#Cc1cnc(NC(=O)Cn2ncc3ncc(N4CCC5(CC5)C(F)(F)C4)nc32)cn1 [Example 754]
10%	N#Cc1ccc(NC(=O)Cn2ncc3ncc(N4CCC5(CC5)C(F)(F)C4)nc32)nc1 [Example 757]
57%	CN(c1cnc2cnn(CC(=O)Nc3ccc4ncncc4c3)c2n1)C1CC2(CC2)C1 [Example 759]

Same assay, conditions: HEK293, Concentration for evaluation 3 μM; HEK293 cell line stably expressing human Nav1.1; read-out: Nav1.1 current amplification rate (%)

SMILES	activation at 3 µM
Cc1nn(CC(=O)Nc2ccn3ncnc3c2)c2nc(N3CCC4(CCC4)C3)cnc12 [Example 738]	22%
Cc1nn(CC(=O)Nc2ccc3ncnn3c2)c2nc(N3CCC4(CCC4)C3)cnc12 [Example 739]	10%

Same assay, conditions: HEK293, Concentration for evaluation 10 μM; HEK293 cell line stably expressing human Nav1.1; read-out: Nav1.1 current amplification rate (%)

SMILES	activation at 10 µM
CC1CC2(C1)CN(c1cnc3cnn(CC(=O)Nc4ccc(C#N)nc4)c3n1)C2 [Example 749]	63%
CN(c1cnc2cnn(CC(=O)NCCc3ccccc3F)c2n1)C1CC2(CC2)C1 [Example 750]	27%
CN(c1cnc2cnn(CC(=O)N3Cc4ccc(Br)cc4C3)c2n1)C1CC2(CC2)C1 [Example 751]	121%

Same assay, conditions: HEK293, Concentration for evaluation 50 μM; HEK293 cell line stably expressing human Nav1.1; read-out: Nav1.1 current amplification rate (%)

SMILES	activation at 50 µM
Cc1ccc(-c2cnc3cnn(CC(=O)N4CCN(c5ccncc5)CC4)c3n2)c(F)c1 [Example 743]	39%
O=C(Cn1ncc2cnc(OCCC3CC3)nc21)Nc1ccn2ncnc2c1 [Example 762, 2-[6-(2-Cyclopropylethoxy)-1H-pyrazolo[3,4-d]pyrimidin-1-yl]-N-([1,2,4]triazolo[1,5-a]pyridin-7-yl)acetamide]	37%
